Laboratory results taken from patent US7718612B2, “Pyridazinonyl macrocyclic hepatitis C serine protease inhibitors” (Enanta Pharmaceuticals, Inc., priority 2006, dated 2010).
Like-named read-outs stand apart in the source and are kept apart here.

Columns and labels:
[1] = test system: HCV replicon RNA in Huh 11-7 cell line; assay: Cell-Based Replicon Assay; settings: Hepatitis C virus, 96 h, read-out: EC50 in the Cell-Based Replicon Assay
Procedure: Quantification of HCV replicon RNA (HCV Cell Based Assay) is accomplished using the Huh 11-7 cell line (Lohmann, et al Science 285:110-113, 1999). Cells are seeded at 4×10^3 cells/well in 96 well plates and fed media containing DMEM (high glucose), 10% fetal calf serum, penicillin-streptomycin and non-essential amino acids. Cells are incubated in a 7.5% CO2 incubator at 37° C. At the end of the incubation period, total RNA is extracted and purified from cells using Ambion RNAqueous 96 Kit (Catalog No. AM1812). To amplify the HCV RNA so that sufficient material can be detected by an HCV specific probe (below), primers specific for HCV (below) mediate both the reverse transcription of the HCV RNA and the amplification of the cDNA by polymerase chain reaction (PCR) using the TaqMan One-Step RT-PCR Master Mix Kit (Applied Biosystems catalog no. 4309169). The nucleotide sequences of the RT-PCR primers, which are located in the NS5B region of the HCV genome, are the following:
Detection of the RT-PCR product is accomplished using the Applied Biosystems (ABI) Prism 7500 Sequence Detection System (SDS) that detects the fluorescence that is emitted when the probe, which is labeled with a fluorescence reporter dye and a quencher dye, is degraded during the PCR reaction. The increase in the amount of fluorescence is measured during each cycle of PCR and reflects the increasing amount of RT-PCR product. Specifically, quantification is based on the threshold cycle, where the amplification plot crosses a defined fluorescence threshold. […] The data is analyzed using the ABI SDS program version 1.7. […]
The RT-PCR product was detected using the following labeled probe: […]
To normalize the data to an internal control molecule within the cellular RNA, RT-PCR is performed on the cellular messenger RNA glyceraldehyde-3-phosphate dehydrogenase (GAPDH). […] GAPDH RT-PCR is performed on the same RNA sample from which the HCV copy number is determined. […] The ratio of HCV/GAPDH RNA is used to calculate the activity of compounds evaluated for inhibition of HCV RNA replication. […]

[2] = biological target: T1, full-length NS3 HCV protease 1b tethered with NS4A cofactor (Hepatitis C virus genotype 1b, UniProt Q9WMX2); assay: NS3/NS4a Protease Enzyme Assay; type: biochemical
T1 construct: full-length NS3 HCV protease 1b tethered with NS4A cofactor; NS4A cofactor (tethered, fused to NS3)
Procedure: HCV protease activity and inhibition is assayed using an internally quenched fluorogenic substrate. A DABCYL and an EDANS group are attached to opposite ends of a short peptide. Quenching of the EDANS fluorescence by the DABCYL group is relieved upon proteolytic cleavage. Fluorescence is measured with a Molecular Devices Fluoromax (or equivalent) using an excitation wavelength of 355 nm and an emission wavelength of 485 nm.
The assay is run in Corning white half-area 96-well plates (VWR 29444-312 [Corning 3693]) with full-length NS3 HCV protease 1b tethered with NS4A cofactor (final enzyme concentration 1 to 15 nM). The assay buffer is complemented with 10 μM NS4A cofactor Pep 4A (Anaspec 25336 or in-house, MW 1424.8). RET S1 (Ac-Asp-Glu-Asp(EDANS)-Glu-Glu-Abu-[COO]Ala-Ser-Lys-(DABCYL)-NH2, AnaSpec 22991, MW 1548.6) is used as the fluorogenic peptide substrate. The assay buffer contains 50 mM Hepes at pH 7.5, 30 mM NaCl and 10 mM BME. The enzyme reaction is followed over a 30 minutes time course at room temperature in the absence and presence of inhibitors.
The peptide inhibitors HCV Inh 1 (Anaspec 25345, MW 796.8) Ac-Asp-Glu-Met-Glu-Glu-Cys-OH, [−20° C.] and HCV Inh 2 (Anaspec 25346, MW 913.1) Ac-Asp-Glu-Dif-Cha-Cys-OH, are used as reference compounds.
IC50 values are calculated using XLFit in ActivityBase (IDBS) using equation 205: y=A+((B−A)/(1+((C/x)^D))).

[3] = Huh 11-7 cells, 4 days, HCV/GAPDH RNA ratio

T1 sequence (Q9WMX2 1013-1657, looked up, natural form): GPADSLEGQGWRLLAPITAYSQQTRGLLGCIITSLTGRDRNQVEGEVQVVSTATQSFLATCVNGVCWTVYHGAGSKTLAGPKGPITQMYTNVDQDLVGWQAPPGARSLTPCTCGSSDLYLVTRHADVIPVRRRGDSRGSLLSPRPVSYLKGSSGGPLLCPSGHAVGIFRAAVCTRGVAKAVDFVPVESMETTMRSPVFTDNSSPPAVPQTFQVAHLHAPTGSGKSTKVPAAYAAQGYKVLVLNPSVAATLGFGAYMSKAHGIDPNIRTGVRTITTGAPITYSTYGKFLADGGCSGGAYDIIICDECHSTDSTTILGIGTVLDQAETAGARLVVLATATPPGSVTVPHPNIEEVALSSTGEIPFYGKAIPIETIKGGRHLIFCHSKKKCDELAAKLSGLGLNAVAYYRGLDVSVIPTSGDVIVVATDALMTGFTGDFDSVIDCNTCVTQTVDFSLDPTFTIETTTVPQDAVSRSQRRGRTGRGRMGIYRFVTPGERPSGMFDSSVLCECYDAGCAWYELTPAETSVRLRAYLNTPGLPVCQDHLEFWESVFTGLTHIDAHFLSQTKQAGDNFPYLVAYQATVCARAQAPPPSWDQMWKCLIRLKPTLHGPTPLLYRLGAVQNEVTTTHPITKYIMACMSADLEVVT

Compound | EC50 [1] [nM] | IC50 [2] [nM] | EC50 [1, 3] [nM]
COc1c(-c2cccc3ccccc23)cnn([C@@H]2C[C@H]3C(=O)N[C@]4(C(=O)NS(=O)(=O)C5CC5)C[C@H]4/C=C\CCCCC[C@H](NC(=O)OC(C)(C)C)C(=O)N3C2)c1=O [Example 30] | < 0.2 | 0.1 | –
COc1c(-c2cccc3ccccc23)cnn(C2CC3C(=O)NC4(C(=O)NS(=O)(=O)C5CC5)CC4C=CCCCCCC(NC(=O)c4cccs4)C(=O)N3C2)c1=O (stereo not drawn) [Example 34] | – | 0.2 | < 0.2
COc1c(-c2cccc3ccccc23)cnn(C2CC3C(=O)NC4(C(=O)NS(=O)(=O)C5CC5)CC4C=CCCCCCC(NC(=O)OC4CCCC4)C(=O)N3C2)c1=O (stereo not drawn) [Example 32] | – | 0.4 | < 0.2
